Reference: a melting point compilation (Tetko et al.; mined from patent text by program, amines drawn as free bases though some values may be those of a salt)

SMILES	melting point [°C]
CCCc1nc2c(N)nc3ccccc3c2n1CC(C)(C)C(=O)N1CCOCC1	212 to 214
CCOC(=O)C(C)(C#N)c1cccc2c(-c3ccc(Cl)cc3)nccc12 (stereo not drawn)	92 to 93.5
O=C(O)c1ccc(CN(Cc2ccc(C(F)(F)P(=O)(O)O)c(Br)c2)S(=O)(=O)c2ccccc2)cc1	160 to 162
CC(C)(C)c1ccc(S(=O)(=O)Nc2nc(-c3ncccn3)nc(OCCOc3ncc(Br)cn3)c2-c2cccs2)cc1	222 to 224
O=Cc1cc(S(=O)(=O)O)c2cccnc2c1O	286 to 288
O=c1[nH]c2ccc(Cl)cc2c(=O)c2ccccc12	289 to 293
Cc1nc(-c2cccc(CN(C(=O)Nc3ccc(Br)cc3)c3ccccc3)c2)no1	145 to 146
CCOC(=O)/C=C(C)/C(F)=C/C=C(C)/C=C/c1c(Cl)cc(OC)c(C)c1C	126 to 128
O=C1c2c(cc(O)c(Cl)c2Cl)CC1(c1ccccc1)C1CCCC1 (stereo not drawn)	161 to 170
CC(=O)CC1=C(C#N)C(c2cccc3nonc23)c2c[nH]nc2N1 (stereo not drawn)	200
CSc1nc2c(C)cccc2c2c1CCN2c1ccccc1C	111 to 113
CC[C@@H]1O[C@](/C=C/C2CC2)(C(F)(F)F)c2c(ccc3c2OCO3)NC1=O (relative stereo)	188 to 190
CC1(C)Cc2c(c(N3CCCC3)nc3sc4c(NCc5cccnc5)ncnc4c23)CO1	289 to 290
CCOC(=O)Cn1c(C(=O)OCc2ccccc2)cc2cc(F)ccc21	75 to 76
O=c1cc(-c2cccs2)oc2cccc(OCCOc3ccccc3)c12	173 to 174
Cc1cc(C(=N)N)ccc1N1CCN(c2ccc(CCC(=O)O)cc2)C1=O	> 270
CCOC(=O)Cc1c(C)n(Cc2ccc(SC)cc2)c2ccc(OCc3nc4ccccc4s3)cc12	101 to 102
Cc1ccc(NS(=O)(=O)c2ccc(N3CCNC3=O)cc2)cc1C	206 to 208
O=C(N[C@H](Cc1ccc(C(F)(F)F)cc1)[C@@H](O)c1cccc2ccccc12)c1ccc2ccccc2c1 (racemic)	251 to 252
COc1ccc(Sc2ccccc2C(C)C)cc1	63 to 65
COC(=O)c1cscc1NC(=O)COc1ccc(-c2ccccc2)cc1	132 to 135
CC(C)(C)c1cc(C(=O)Nc2cccc(SCc3cccnc3)c2)ccc1O	95 to 100

Further lines, results first:

melting point [°C]	SMILES
186 to 188	CC(C)c1ccc2nc3ccc(C(=O)OCC#N)cn3c(=O)c2c1
230 to 232	Cc1nc2c(cc1C(=O)NC(=N)N)CCCCC2
238 to 240	COc1cc(C2C3=C(COC3=O)Nc3ccc4cn[nH]c4c32)ccc1O (stereo not drawn)
217 to 218	CC(=O)NCC1CN(c2ccc(N3CCN(c4nnc(C5CC5)s4)CC3)c(F)c2)C(=O)O1 (stereo not drawn)
153 to 154	CC(=O)c1ccc2cc(N3CCN(C(=O)OC(C)(C)C)CC3)ccc2c1
192 to 194	O=C(Nc1ccc(-c2cnc(-c3ccc(NC(=O)C4CCCCC4)cc3)[nH]2)cc1)C1CCCCCC1
68 to 70	O=[N+]([O-])c1ccc(F)c(-c2cccnc2)c1F
240 to 241	Oc1cc(-c2ccc(Cl)cc2)[nH]n1
94 to 95	CC(=O)c1ccc(S(=O)(=O)C[N+](=O)[O-])cc1
110 to 115	COC(=O)c1cc([N+](=O)[O-])c(O)c([N+](=O)[O-])c1
202 to 204	COc1ccc(N2CCN(C)CC2)c2c1OCC(C(=O)Nc1ccc(N3CCOCC3)cc1)C2 (stereo not drawn)
109 to 111	CCOc1ccc2c(-c3ccccc3)c([N+](=O)[O-])oc2c1
164 to 166	O=[N+]([O-])c1ccc(-c2nc(-c3ccccc3)no2)o1
> 240	O=c1ccc(S(=O)(=O)c2oc3ccc(Cl)cc3c2-c2ccccc2)n[nH]1
198 to 202	O=C1CC2(CN1)CC(=O)c1cc(F)ccc12 (stereo not drawn)
297 to 301	Cc1ccc(N2C(=O)NC(NCC(C)C)NC2=O)cc1
